ChEMBL document CHEMBL5550165, “Novel quinoxaline analogs as telomeric G-quadruplex ligands exert antitumor effects related to enhanced immunomodulation” (Eur J Med Chem, 2024)
Activity calls are given as the source filed them. The rule behind the calls is not given here.

What was measured:
Quadruplex DNA = experiment: Stabilization of G-quadruplex 5-FAM-telomeric24 DNA-TAMRA-3 (unknown origin) assessed as change in melting temperature incubated for 2 hrs by FRET assay; type: nucleic-acid assay
[1] = Cytotoxicity against human MCF-10A cells incubated for 24 hrs by CCK-8 reagent based spectrophotometric analysis; type: toxicity, cell-based
U2OS = experiment: Cytotoxicity against human U2OS cells incubated for 24 hrs by CCK-8 reagent based spectrophotometric analysis; type: functional, cell-based
MDA-MB-231 = experiment: Cytotoxicity against human MDA-MB-231 cells incubated for 24 hrs by CCK-8 reagent based spectrophotometric analysis; type: functional, cell-based; conditions: MDA-MB-231, 24 h
MCF7 = experiment: Cytotoxicity against human MCF7 cells incubated for 24 hrs by CCK-8 reagent based spectrophotometric analysis; type: functional, cell-based; conditions: MCF7, 24 h
4T1 [2] = experiment: Cytotoxicity against mouse 4T1 cells incubated for 24 hrs by CCK-8 reagent based spectrophotometric analysis; type: functional, cell-based; conditions: 4T1, 24 h
4T1 [3] = experiment: Antitumor immunity against mouse 4T1 cells implanted in BALB/c mouse assessed as increase in proportion of CD4+ T cells in spleen at 2 mg/kg,ip every other day for 14 days by flow cytometry; type: functional, organism-based; conditions: time 14.0 day
[4] = Toxicity in BALB/c mouse implanted with mouse 4T1 cells assessed as decrease in heart weight at 2 mg/kg,ip every other day for 14 days; type: organism-based; conditions: in vivo, 336 h, time 14 day
4T1 [5] = experiment: Antitumor immunity against mouse 4T1 cells implanted in BALB/c mouse assessed as increase in proportion of CD4+ T cells in tumor at 2 mg/kg,ip every other day for 14 days by flow cytometry; type: functional, organism-based; conditions: time 14.0 day
[6] = Toxicity in BALB/c mouse implanted with mouse 4T1 cells assessed as decrease in kidney weight at 2 mg/kg,ip every other day for 14 days; type: organism-based; conditions: in vivo, 336 h, time 14 day
[7] = Toxicity in BALB/c mouse implanted with mouse 4T1 cells assessed as decrease in lung weight at 2 mg/kg,ip every other day for 14 days; type: organism-based; conditions: in vivo, 336 h, time 14 day
4T1 [8] = experiment: Antitumor activity against mouse 4T1 cells implanted in BALB/c mouse assessed as damage in tumor tissue at 2 mg/kg,ip every other day for 14 days by hematoxylin and eosin staining analysis; type: functional, organism-based; conditions: time 14.0 day
4T1 [9] = experiment: Antitumor immunity against mouse 4T1 cells implanted in BALB/c mouse assessed as increase in proportion of CD8+ T cells in tumor at 2 mg/kg,ip every other day for 14 days by flow cytometry; type: functional, organism-based; conditions: time 14.0 day
4T1 [10] = experiment: Antitumor immunity against mouse 4T1 cells implanted in BALB/c mouse assessed as increase in proportion of CD4+ T cells in tumor at 2 mg/kg,ip every other day for 14 days by immunohistochemistry staining based analysis; type: functional, organism-based; conditions: time 14.0 day
4T1 [11] = experiment: Antitumor immunity against mouse 4T1 cells implanted in BALB/c mouse assessed as increase in serum TNF-alpha level at 2 mg/kg,ip every other day for 14 days by ELISA; type: functional, organism-based; conditions: time 14.0 day
4T1 [12] = experiment: Antitumor activity against mouse 4T1 cells implanted in BALB/c mouse assessed as reduction in tumor weight at 2 mg/kg,ip every other day for 14 days; type: functional, organism-based; conditions: time 14.0 day
[13] = Toxicity in BALB/c mouse implanted with mouse 4T1 cells assessed as decrease in spleen weight at 2 mg/kg,ip every other day for 14 days; type: organism-based; conditions: in vivo, 336 h, time 14 day
[14] = Toxicity in BALB/c mouse implanted with mouse 4T1 cells assessed as decrease in liver weight at 2 mg/kg,ip every other day for 14 days; type: organism-based; conditions: in vivo, 336 h, time 14 day
4T1 [15] = experiment: Antitumor immunity against mouse 4T1 cells implanted in BALB/c mouse assessed as increase in serum IL-6 level at 2 mg/kg,ip every other day for 14 days by ELISA; type: functional, organism-based; conditions: time 14.0 day
4T1 [16] = experiment: Antitumor immunity against mouse 4T1 cells implanted in BALB/c mouse assessed as increase in proportion of CD8+ T cells in spleen at 2 mg/kg,ip every other day for 14 days by flow cytometry; type: functional, organism-based; conditions: time 14.0 day
[17] = Toxicity in BALB/c mouse implanted with mouse 4T1 cells assessed as decrease in body weight at 2 mg/kg,ip every other day for 14 days; type: organism-based; conditions: in vivo, 336 h, time 14 day
4T1 [18] = experiment: Antitumor immunity against mouse 4T1 cells implanted in BALB/c mouse assessed as increase in proportion of CD8+ T cells in tumor at 2 mg/kg,ip every other day for 14 days by immunohistochemistry staining based analysis; type: functional, organism-based; conditions: time 14.0 day
BMDC = experiment: Induction of immunogenic cell death in BALB/c mouse BMDC cells co-cultured with mouse 4T1 cells assessed as increase in CD11c+ CD80+ CD86 cells maturation at 5 uM incubated for 24 hrs by flow cytometry (reference value: 69.4 %); type: functional

Row | SMILES | ΔTm (Quadruplex DNA) | IC50 at 24 h [1] | IC50 (U2OS) | IC50 (MDA-MB-231) | IC50 (MCF7) | IC50 (4T1 [2]) | also measured
1 | CN(CCO)c1ccc(-c2nc3ccc(C(F)(F)F)cc3nc2-c2ccc(N(C)CCO)cc2)cc1 | 0.5 °C | 20.5 µM | 19.3 µM | > 40 µM | > 40 µM | > 40 µM | –
2 | CN(C)CCN(C)c1ccc(-c2nc3cc4ccccc4cc3nc2-c2ccc(N(C)CCN(C)C)cc2)cc1 | 7.9 °C | 1.3 µM | 1.5 µM | 1.4 µM | 1.9 µM | 2.9 µM | –
3 | COc1ccc2nc(-c3ccc(N4CCN(CCN(C)C)CC4)cc3)c(-c3ccc(N4CCN(CCN(C)C)CC4)cc3)nc2c1 | 5.6 °C | 3.4 µM | 6.9 µM | 2.3 µM | 9.5 µM | 5.3 µM | –
4 | CN(C)CCN1CCN(c2ccc(-c3nc4ccc(C(F)(F)F)cc4nc3-c3ccc(N4CCN(CCN(C)C)CC4)cc3)cc2)CC1 | 6.6 °C | 1.5 µM | 3.5 µM | 2 µM | 4.3 µM | 1.7 µM | –
5 | OCCN1CCN(c2ccc(-c3nc4cc5ccccc5cc4nc3-c3ccc(N4CCN(CCO)CC4)cc3)cc2)CC1 | 1.9 °C | 2.8 µM | 6.6 µM | 2.5 µM | 18.4 µM | 4.9 µM | –
6 | CN(C)CCN1CCN(c2ccc(-c3nc4cc5ccccc5cc4nc3-c3ccc(N4CCN(CCN(C)C)CC4)cc3)cc2)CC1 | 5.7 °C | 3.7 µM | 13.3 µM | 5.2 µM | 8.4 µM | 4 µM | –
7 | OCCN1CCN(c2ccc(-c3nc4ccc(F)cc4nc3-c3ccc(N4CCN(CCO)CC4)cc3)cc2)CC1 | 3.2 °C | 6.3 µM | 4.5 µM | 1.8 µM | 10.5 µM | 12.9 µM | –
8 | OCCN1CCN(c2ccc(-c3nc4ccc(C(F)(F)F)cc4nc3-c3ccc(N4CCN(CCO)CC4)cc3)cc2)CC1 | 1.5 °C | 4.1 µM | 3.7 µM | 2 µM | 6.3 µM | 4.3 µM | –
9 | COc1ccc2nc(-c3ccc(N4CCN(CCO)CC4)cc3)c(-c3ccc(N4CCN(CCO)CC4)cc3)nc2c1 | 4.1 °C | 6.7 µM | 8 µM | 1.3 µM | 15.9 µM | 22.1 µM | –
10 | CN(C)CCN(C)c1ccc(-c2nc3ccc(F)cc3nc2-c2ccc(N(C)CCN(C)C)cc2)cc1 | 6 °C | 8.8 µM | 3.1 µM | 3.1 µM | 4.2 µM | 5.6 µM | –
11 | CN(C)CCN1CCN(c2ccc(-c3nc4ccc(F)cc4nc3-c3ccc(N4CCN(CCN(C)C)CC4)cc3)cc2)CC1 | 8.3 °C | 2.7 µM | 3.6 µM | 2.9 µM | 6.1 µM | 2.3 µM | –
12 | COc1ccc2nc(-c3ccc(N(C)CCN(C)C)cc3)c(-c3ccc(N(C)CCN(C)C)cc3)nc2c1 | 6.6 °C | 13.7 µM | 8.8 µM | 6.2 µM | 5.8 µM | 9.4 µM | –
13 | CN(CCO)c1ccc(-c2nc3cc4ccccc4cc3nc2-c2ccc(N(C)CCO)cc2)cc1 | 0.9 °C | 11.1 µM | > 40 µM | 20.9 µM | > 40 µM | 36.4 µM | –
14 | CN(CCO)c1ccc(-c2nc3ccc(F)cc3nc2-c2ccc(N(C)CCO)cc2)cc1 | 0.4 °C | 18 µM | > 40 µM | 33.2 µM | > 40 µM | 31.6 µM | –
15 | COc1ccc2nc(-c3ccc(N(C)CCO)cc3)c(-c3ccc(N(C)CCO)cc3)nc2c1 | 0.1 °C | 24.1 µM | > 40 µM | > 40 µM | > 40 µM | > 40 µM | –
16 | COc1cccc2c1C(=O)c1c(O)c3c(c(O)c1C2=O)C[C@@](O)(C(=O)CO)C[C@@H]3O[C@H]1C[C@H](N)[C@H](O)[C@H](C)O1 [DOXORUBICIN] | – | – | – | – | – | – | Activity (4T1 [3]): Active; Activity [4]: Toxic; Activity (4T1 [5]): Active; Activity [6]: Toxic; Activity [7]: Toxic; Activity (4T1 [8]): Active; Activity (4T1 [9]): Active; Activity (4T1 [10]): Active; Activity (4T1 [11]): Active; Activity (4T1 [12]): Active; Activity [13]: Toxic; Activity [14]: Toxic; Activity (4T1 [15]): Active; Activity (4T1 [16]): Active; Activity [17]: Toxic; Activity (4T1 [18]): Active; Activity (BMDC): 81.5%
